Here are results for one compound from publication PMC8767972 (Slas Discovery, 2022).

One test concerns the target HKU1 main protease (Human coronavirus HKU1, UniProt P0C6X2). Format: biochemical, HKU1 CoV. The conditions noted are these: read-out: HKU1 IC50.
For a further test, the target named is NL63 main protease (Human coronavirus NL63, UniProt P0C6X5). The test is classed as biochemical, NL63 CoV. The conditions noted are these: read-out: NL63 IC50.

SMILES strings stand for the structures.

Chain of NL63 main protease (P0C6X5 2940-3242 limits assumed): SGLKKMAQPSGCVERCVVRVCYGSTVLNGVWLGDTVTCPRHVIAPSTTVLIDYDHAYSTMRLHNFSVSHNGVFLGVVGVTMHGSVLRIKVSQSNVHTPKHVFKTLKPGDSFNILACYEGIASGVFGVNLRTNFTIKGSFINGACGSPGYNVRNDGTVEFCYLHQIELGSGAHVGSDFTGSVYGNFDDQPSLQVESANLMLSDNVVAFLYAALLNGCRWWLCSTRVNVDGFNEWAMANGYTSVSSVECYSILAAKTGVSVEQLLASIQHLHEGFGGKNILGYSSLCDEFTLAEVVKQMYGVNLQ
Chain of HKU1 main protease (P0C6X2 3335-3637 limits assumed): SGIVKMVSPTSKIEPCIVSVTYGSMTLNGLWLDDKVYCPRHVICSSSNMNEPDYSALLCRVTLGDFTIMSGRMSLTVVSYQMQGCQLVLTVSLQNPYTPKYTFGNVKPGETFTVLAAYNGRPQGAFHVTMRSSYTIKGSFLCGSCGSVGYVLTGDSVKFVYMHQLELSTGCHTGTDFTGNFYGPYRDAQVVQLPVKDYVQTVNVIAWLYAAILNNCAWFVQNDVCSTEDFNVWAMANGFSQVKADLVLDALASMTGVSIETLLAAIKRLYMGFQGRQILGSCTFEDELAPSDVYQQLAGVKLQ

In general, IC50 refers to the concentration that inhibits the measured activity by half. In the case of `CC(C)C[C@H](NC(=O)OCc1ccccc1)C(=O)N[C@@H](CC1CCNC1=O)C(O)S(=O)(=O)O` (some centres unmarked) [GC376], the values for the IC50 at HKU1 main protease and at NL63 main protease were 12 nM and 52 nM, respectively.
